According to BindingDB's records for doi:10.1016/j.bmcl.2007.11.068 (Johnson & Johnson Pharmaceutical Research and Development, 2008):

Legend:
[1] = target: T1, Alpha-1B adrenergic receptor (Homo sapiens, UniProt P35368)
T1 sequence (P35368 whole entry): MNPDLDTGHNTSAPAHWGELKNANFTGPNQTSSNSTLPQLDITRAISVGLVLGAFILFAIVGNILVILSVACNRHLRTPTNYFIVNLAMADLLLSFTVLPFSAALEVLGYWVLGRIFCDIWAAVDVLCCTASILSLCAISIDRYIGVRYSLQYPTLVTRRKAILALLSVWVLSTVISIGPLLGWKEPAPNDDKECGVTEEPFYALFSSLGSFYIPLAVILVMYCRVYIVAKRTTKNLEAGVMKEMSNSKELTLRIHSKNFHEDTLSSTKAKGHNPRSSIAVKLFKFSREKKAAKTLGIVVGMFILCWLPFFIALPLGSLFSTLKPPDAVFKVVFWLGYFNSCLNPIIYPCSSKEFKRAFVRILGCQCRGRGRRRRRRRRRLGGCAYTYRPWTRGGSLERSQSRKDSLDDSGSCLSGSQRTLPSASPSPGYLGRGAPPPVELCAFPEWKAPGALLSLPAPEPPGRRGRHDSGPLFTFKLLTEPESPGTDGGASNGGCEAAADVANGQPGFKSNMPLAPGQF

[2] = target: T2, Alpha-1D adrenergic receptor (Homo sapiens, UniProt P25100)
T2 sequence (P25100 whole entry): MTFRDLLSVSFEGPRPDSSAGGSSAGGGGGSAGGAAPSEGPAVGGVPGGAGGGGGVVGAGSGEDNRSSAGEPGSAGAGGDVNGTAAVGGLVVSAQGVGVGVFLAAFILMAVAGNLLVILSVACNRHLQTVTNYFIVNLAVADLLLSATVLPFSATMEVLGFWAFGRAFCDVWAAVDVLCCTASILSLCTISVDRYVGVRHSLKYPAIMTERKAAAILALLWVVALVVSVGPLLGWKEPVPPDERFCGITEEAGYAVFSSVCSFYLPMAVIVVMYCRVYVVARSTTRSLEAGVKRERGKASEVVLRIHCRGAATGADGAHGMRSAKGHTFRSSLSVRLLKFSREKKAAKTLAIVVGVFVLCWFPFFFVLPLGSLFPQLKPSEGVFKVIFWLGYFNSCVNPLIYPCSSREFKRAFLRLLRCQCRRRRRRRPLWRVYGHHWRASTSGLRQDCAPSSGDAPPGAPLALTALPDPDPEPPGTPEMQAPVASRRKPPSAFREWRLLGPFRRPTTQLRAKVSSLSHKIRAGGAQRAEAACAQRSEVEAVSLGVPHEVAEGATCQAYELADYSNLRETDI

Ki [1]: 2 nM
Ki [2]: 0.2 nM
SMILES: CCOc1ccccc1OCCNC(C)Cc1ccc(OC)c(S(N)(=O)=O)c1 (configuration not stated) [NSC_60147]
